{
  "source": "ChEMBL document CHEMBL5728659",
  "about": "“Macrocyclic immunomodulators” (2021)",
  "assay": "Enzyme-Linked Immunosorbent Assay-ELISA: 96 Well plates were coated with 1 μg/mL of human PD-L1 (obtained from R&D) in PBS overnight at 4° C. The wells were then blocked with 2% BSA in PBS (W/V) with 0.05% TWEEN-20 for 1 hour at 37° C. The plates were washed 3 times with PBS/0.05% TWEEN-20 and the compounds were serial diluted (1:5) in dilution medium and added to the ELISA plates. Human PD-1 and biotin 0.3 μg/mL (ACRO Biosystems) were added and incubated for 1 hour at 37° C. then washed 3 times with PBS/0.05% TWEEN-20. A second block was performed with 2% BSA in PBS (W/V)/0.05% TWEEN-20 for 10 min at 37° C. and was washed 3 times with PBS/0.05% TWEEN-20. Streptavidin—HRP was added for 1 hour at 37° C. then washed 3 times with PBS/0.05% TWEEN-20. TMB substrate was added and reacted for 20 min at 37° C. A stop solution (2 N aqueous H2SO4) was added. The absorbance was read at 450 nm using a micro-plate spectrophotometer.",
  "data": [
    {"compound": "Cc1c(COc2cc3c(cc2Cl)CN[C@H](CC(=O)O)CCCCNC(=O)c2cncc(c2)CO3)cccc1-c1ccccc1", "values": [
      {"measurement": "IC50", "value": "in the range around 300 nM"}
    ]},
    {"compound": "Cc1c(COc2cc3c(cc2Cl)CN[C@H](C(=O)O)CCCCNC(=O)CCCCO3)cccc1-c1ccccc1", "values": [
      {"measurement": "IC50", "value": "in the range around 300 nM"}
    ]},
    {"compound": "Cc1c(COc2cc3c(cc2Cl)CN[C@H](C(=O)O)CCCCNC(=O)c2cncc(c2)CO3)cccc1-c1cccc(OCCCCl)c1C", "values": [
      {"measurement": "IC50", "value": "in the range around 10200 nM"}
    ]},
    {"compound": "Cc1c(COc2cc3c(cc2Cl)CN[C@H](C(=O)O)COCCNC(=O)c2cncc(c2)CO3)cccc1-c1ccccc1", "values": [
      {"measurement": "IC50", "value": "in the range around 300 nM"}
    ]},
    {"compound": "Cc1c(COc2cc3c(cc2Cl)CN[C@@H](CO)C(=O)NCCNC(=O)c2cncc(c2)CO3)cccc1-c1ccccc1", "values": [
      {"measurement": "IC50", "value": "in the range around 300 nM"}
    ]},
    {"compound": "Cc1c(COc2cc3c(cc2Cl)CN[C@H](C(=O)O)CCCNC(=O)c2cncc(c2)CO3)cccc1-c1ccccc1", "values": [
      {"measurement": "IC50", "value": "in the range around 300 nM"}
    ]},
    {"compound": "O=C1NCCCC[C@@H](C(=O)O)NCc2cc(Cl)c(O[C@H]3CCc4c(-c5ccccc5F)cccc43)cc2OCc2cncc1c2", "values": [
      {"measurement": "IC50", "value": "in the range around 300 nM"}
    ]},
    {"compound": "Cc1c(COc2cc3c(cc2Cl)CN[C@H](C(=O)O)CCCCNC(=O)c2cncc-3c2)cccc1-c1ccccc1", "values": [
      {"measurement": "IC50", "value": "in the range around 10200 nM"}
    ]}
  ]
}
